Legend:
[1] = tested on: giant foxtail; assay: Test B pre/postemergence giant foxtail; format: in vivo, Setaria faberii
Method in brief: (§1)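 Test chemicals in a non-phytotoxic solvent mixture with surfactant were sprayed preemergence onto planted seeds and postemergence onto plants 2 to 18 cm tall (1- to 4-leaf stage). After twelve to sixteen days in a greenhouse, injury was visually rated against untreated controls from 0 (no effect) to 10 (complete control).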

[2] = tested on: wheat; assay: Test B pre/postemergence wheat; format: in vivo, Triticum aestivum
Method in brief: as §1

[3] = tested on: morningglory; assay: Test B pre/postemergence morningglory; format: in vivo, Ipomoea hederacea
Method in brief: as §1

[4] = tested on: duck salad; assay: Test B flood test duck salad; format: in vivo, Heteranthera limosa
Method in brief: (§2)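 Read-out is a visual response score from 0 (no effect) to 10 (complete control), assigned by comparison with untreated controls. Treatment was applied at the 2-leaf stage, and plants stayed in the greenhouse for twelve to sixteen days before scoring.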

[5] = tested on: blackgrass; assay: Test B pre/postemergence blackgrass; format: in vivo, Alopecurus myosuroides
Method in brief: as §1

[6] = tested on: bamyardgrass; assay: Test B flood test barnyardgrass; format: in vivo, Echinochloa crus-galli
Method in brief: as §2

[7] = tested on: cocklebur; assay: Test B pre/postemergence cocklebur; format: in vivo, Xanthium strumarium
Method in brief: as §1

[8] = tested on: velvetleaf; assay: Test B pre/postemergence velvetleaf; format: in vivo, Abutilon theophrasti
Method in brief: as §1

[9] = tested on: corn; assay: Test B pre/postemergence corn; format: in vivo, Zea mays
Method in brief: as §1

[10] = tested on: wild oat; assay: Test B pre/postemergence wild oat; format: in vivo, Avena fatua
Method in brief: as §1

[11] = tested on: soybean; assay: Test B pre/postemergence soybean; format: in vivo, Glycine max
Method in brief: as §1

[12] = tested on: surinam grass; assay: Test B pre/postemergence surinam grass; format: in vivo, Brachiaria decumbens
Method in brief: as §1

[13] = tested on: smallflower flatsedge; assay: Test B flood test smallflower flatsedge; format: in vivo, Cyperus difformis
Method in brief: as §2

[14] = tested on: rape; assay: Test B pre/postemergence rape; format: in vivo, Brassica napus
Method in brief: as §1

[15] = tested on: crabgrass; assay: Test B pre/postemergence crabgrass; format: in vivo, Digitaria sanguinalis
Method in brief: as §1

[16] = Postemergence, Rate 250 g/ha, scale 0 to 10
[17] = Postemergence, Rate 500 g/ha, scale of 0 to 10 where 0 is no effect and 10 is complete control
[18] = Preemergence, Rate 62 g/ha, scale 0 to 10 (0 no effect, 10 complete control)
[19] = Preemergence, Rate 125 g/ha, scale of 0 to 10 where 0 is no effect and 10 is complete control
[20] = Preemergence, Rate 250 g/ha, scale 0 to 10, 0 is no effect, 10 is complete control
[21] = Preemergence, Rate 500 g/ha, scale 0 to 10, 0 is no effect, 10 is complete control
[22] = Rate 62 g/ha, Postemergence, scale of 0 to 10 where 0 is no effect and 10 is complete control
[23] = Rate 125 g/ha, Postemergence, scale 0 to 10, 0 is no effect, 10 is complete control
[24] = Postemergence block (flood test species), Rate 250 g/ha, scale 0 to 10
[25] = Postemergence section (flood test species), Rate 500 g/ha, scale of 0 to 10 where 0 is no effect and 10 is complete control
[26] = Rate 62 g/ha, Postemergence (flood test species), scale of 0 to 10 where 0 is no effect and 10 is complete control
[27] = Rate 125 g/ha, Postemergence section (flood test species), scale 0 to 10, 0 is no effect, 10 is complete control
[28] = Preemergence, Rate 250 g/ha, scale of 0 to 10 where 0 is no effect and 10 is complete control

With `C=C[Si](C)(C)Cn1c(=O)on(C(=O)N(c2ccc(Cl)cc2)C(C)C)c1=O` [Compound 425] the “Giant foxtail plant response rating” value [1, 16] was 8, the “Giant foxtail plant response rating” value [1, 17] was 9 and the “Plant response rating, Giant foxtail” value [1, 18] was 10. The “Plant response rating, Giant foxtail” value [1, 19] was 10, the “Giant foxtail plant response rating” value [1, 20] was 10 and the “Giant foxtail plant response rating” value [1, 21] was 10. For the same compound, the “Giant foxtail plant response rating” value [1, 22] was 6, the “Giant foxtail plant response rating” value [1, 23] was 7 and the “Wheat plant response rating” value [2, 16] was 3. The “Wheat plant response rating” value [2, 17] was 6, the “Plant response rating, Wheat” value [2, 18] was 2 and the “Plant response rating, Wheat” value [2, 19] was 2. The “Wheat plant response rating” value [2, 20] was 3, the “Wheat plant response rating” value [2, 21] was 4 and the “Wheat plant response rating” value [2, 23] was 0. The “Morningglory plant response rating” value [3, 16] was 6, the “Morningglory plant response rating” value [3, 17] was 10 and the “Plant response rating, Morningglory” value [3, 18] was 0. For the same compound, the “Plant response rating, Morningglory” value [3, 19] was 0, the “Morningglory plant response rating” value [3, 20] was 2 and the “Morningglory plant response rating” value [3, 21] was 4. The “Morningglory plant response rating” value [3, 23] was 5, the “Ducksalad plant response rating” value [4, 24] was 0 and the “Ducksalad plant response rating” value [4, 25] was 0. For the same compound, the “Ducksalad plant response rating” value [4, 26] was 0, the “Ducksalad plant response rating” value [4, 27] was 0 and the “Blackgrass plant response rating” value [5, 16] was 8. The “Blackgrass plant response rating” value [5, 17] was 9, the “Plant response rating, Blackgrass” value [5, 18] was 7 and the “Plant response rating, Blackgrass” value [5, 19] was 9. For the same compound, the “Blackgrass plant response rating” value [5, 28] was 9, the “Blackgrass plant response rating” value [5, 21] was 10 and the “Blackgrass plant response rating” value [5, 22] was 2. For the same compound, the “Blackgrass plant response rating” value [5, 23] was 3, the “Barnyardgrass plant response rating” value [6, 24] was 1 and the “Barnyardgrass plant response rating” value [6, 25] was 7. The “Barnyardgrass plant response rating” value [6, 26] was 0, the “Barnyardgrass plant response rating” value [6, 27] was 0 and the “Cocklebur plant response rating” value [7, 16] was 0. The “Cocklebur plant response rating” value [7, 17] was 0, the “Plant response rating, Cocklebur” value [7, 18] was 0 and the “Plant response rating, Cocklebur” value [7, 19] was 0. For the same compound, the “Cocklebur plant response rating” value [7, 20] was 0, the “Cocklebur plant response rating” value [7, 21] was 2 and the “Cocklebur plant response rating” value [7, 22] was 0. For the same compound, the “Cocklebur plant response rating” value [7, 23] was 0, the “Velvetleaf plant response rating” value [8, 16] was 0 and the “Velvetleaf plant response rating” value [8, 17] was 2. The “Plant response rating, Velvetleaf” value [8, 18] was 0, the “Plant response rating, Velvetleaf” value [8, 19] was 0 and the “Velvetleaf plant response rating” value [8, 20] was 2. The “Velvetleaf plant response rating” value [8, 21] was 6, the “Velvetleaf plant response rating” value [8, 23] was 0 and the “Corn plant response rating” value [9, 16] was 0. The “Corn plant response rating” value [9, 17] was 2, the “Plant response rating, Corn” value [9, 18] was 0 and the “Plant response rating, Corn” value [9, 19] was 0. For the same compound, the “Corn plant response rating” value [9, 20] was 0, the “Corn plant response rating” value [9, 21] was 9 and the “Corn plant response rating” value [9, 22] was 0. For the same compound, the “Corn plant response rating” value [9, 23] was 0, the “Wild oats plant response rating” value [10, 16] was 2 and the “Wild oats plant response rating” value [10, 17] was 3. The “Plant response rating, Wild oats” value [10, 18] was 2, the “Plant response rating, Wild oats” value [10, 19] was 4 and the “Wild oats plant response rating” value [10, 20] was 4. For the same compound, the “Wild oats plant response rating” value [10, 21] was 10, the “Wild oats plant response rating” value [10, 23] was 0 and the “Soybean plant response rating” value [11, 16] was 2. For the same compound, the “Soybean plant response rating” value [11, 17] was 3, the “Plant response rating, Soybean” value [11, 18] was 0 and the “Plant response rating, Soybean” value [11, 19] was 0. For the same compound, the “Soybean plant response rating” value [11, 20] was 0, the “Soybean plant response rating” value [11, 21] was 0 and the “Soybean plant response rating” value [11, 23] was 1. The “B. signalgrass plant response rating” value ([12]; Postemergence, Rate 250 g/ha, scale 0 to 10, 0 no effect, 10 complete control) was 7, the “B. signalgrass plant response rating” value [12, 17] was 8 and the “Plant response rating, B. signalgrass” value [12, 18] was 3. For the same compound, the “Plant response rating, B. signalgrass” value [12, 19] was 8, the “B. signalgrass plant response rating” value [12, 28] was 8 and the “B. signalgrass plant response rating” value ([12]; Preemergence, Rate 500 g/ha, scale of 0 to 10 where 0 is no effect and 10 is complete control) was 9. The “B. signalgrass plant response rating” value [12, 22] was 0, the “B. signalgrass plant response rating” value [12, 23] was 2 and the “S. Flatsedge plant response rating” value [13, 24] was 2. For the same compound, the “S. Flatsedge plant response rating” value [13, 25] was 6, the “S. Flatsedge plant response rating” value [13, 27] was 0 and the “Rape plant response rating” value [14, 16] was 2. For the same compound, the “Rape plant response rating” value [14, 17] was 3, the “Plant response rating, Rape” value [14, 18] was 0 and the “Plant response rating, Rape” value [14, 19] was 2. The “Rape plant response rating” value [14, 20] was 2, the “Rape plant response rating” value [14, 21] was 10 and the “Rape plant response rating” value [14, 23] was 0. The “Crabgrass plant response rating” value [15, 16] was 8, the “Crabgrass plant response rating” value [15, 17] was 9 and the “Plant response rating, Crabgrass” value [15, 18] was 9. The “Plant response rating, Crabgrass” value [15, 19] was 10, the “Crabgrass plant response rating” value [15, 20] was 10 and the “Crabgrass plant response rating” value [15, 21] was 10. For the same compound, the “Crabgrass plant response rating” value [15, 22] was 4 and the “Crabgrass plant response rating” value [15, 23] was 7.

Reference: patent US6737383B1, “Herbicidal oxadiazolidines” (priority 1999, dated 2004)
